Measured values: US20230365530A1, “QUINAZOLINE-2,4-DIAMINE DERIVATIVE AND PHARMACEUTICAL COMPOSITION FOR PREVENTING OR TREATING CANCER COMPRISING SAME AS ACTIVE INGREDIENT” (THE ASEAN FOUNDATION, priority 2020, published 2023)
pIC50: −log10 of the molar value.

Molecular target: EHMT2 (Euchromatic histone-lysine N-methyltransferase 2) (Homo sapiens (Human), UniProt Q96KQ7)
Experiment: EHMT2 enzyme inhibition, LANCE TR-FRET
Format: biochemical
Details: histone H3 peptide, 1 hour at room temperature
Protocol: In order to analyze the enzyme inhibitory efficacy of the compounds of Examples 1 to 89, EHMT2 (Euchromatic histone-lysine N-methyltransferase 2) enzyme activity was measured using the LANCE TR-FRET™ analysis method of Perkin Elmer. When the EHMT2 enzyme is activated, the 9th lysine residue of the biotinylated-histone peptide is methylated and the EU-conjugated antibody is combined to the methylated histone peptide. Then, when the complex is irradiated with light of excitation wavelength, the complex emits light having a wavelength of 665 nm through FRET phenomenon. Accordingly, fluorescence was measured, and IC50 values were calculated through a software to evaluate the EHMT2 enzyme activity inhibitory effect of the compounds of Examples 1 to 89.
Specific experimental methods are as follows. First, the compounds of Examples 1 to 89 of 1 nM to 100 μM (4× conc.) were put into a 384 well plate (25 μL/well), and 2 μM EEMT2/G9a enzyme (4× conc.) was put into the 384 well plate (25 μL/well). The plate was then centrifuged at 1,500 rpm for 5 seconds after sealing the plate with plate sealing foil. After incubating the EHMT2/G9a enzyme, SAM, and the compounds of Examples above at room temperature for 10 minutes, 2 μM histone H3 peptide (4× conc.) was added to the 384-well plate (25 μL/well). After sealing the plate with plate sealing foil and centrifuging at 1,500 rpm for 5 seconds, an enzymatic reaction was performed at room temperature for 1 hour. Upon completion of the enzyme reaction, 5 μL each of 200 nM Ulight™-Streptavidin (4× conc.) and 8 nM Eu-antibody (4× conc.) was added to each well of the plate. The plate was sealed with plate sealing foil, centrifuged at 1,500 rpm for 5 seconds and reacted at room temperature for 1 hour. The signal values were measured with Envision (Ex 320 nm, Em 665 nm), and all background values obtained by reacting without enzyme were deleted from the measured raw data values. Then, the EHMT2 enzyme activity inhibitory effect of the compounds of Examples 1 to 89 was converted into % values, and compared with the EHMT2 activity when treated with 4% DMSO vehicle (=0 nM compound) as 100%.

Chain of EHMT2 (Euchromatic histone-lysine N-methyltransferase 2) (Q96KQ7 whole entry): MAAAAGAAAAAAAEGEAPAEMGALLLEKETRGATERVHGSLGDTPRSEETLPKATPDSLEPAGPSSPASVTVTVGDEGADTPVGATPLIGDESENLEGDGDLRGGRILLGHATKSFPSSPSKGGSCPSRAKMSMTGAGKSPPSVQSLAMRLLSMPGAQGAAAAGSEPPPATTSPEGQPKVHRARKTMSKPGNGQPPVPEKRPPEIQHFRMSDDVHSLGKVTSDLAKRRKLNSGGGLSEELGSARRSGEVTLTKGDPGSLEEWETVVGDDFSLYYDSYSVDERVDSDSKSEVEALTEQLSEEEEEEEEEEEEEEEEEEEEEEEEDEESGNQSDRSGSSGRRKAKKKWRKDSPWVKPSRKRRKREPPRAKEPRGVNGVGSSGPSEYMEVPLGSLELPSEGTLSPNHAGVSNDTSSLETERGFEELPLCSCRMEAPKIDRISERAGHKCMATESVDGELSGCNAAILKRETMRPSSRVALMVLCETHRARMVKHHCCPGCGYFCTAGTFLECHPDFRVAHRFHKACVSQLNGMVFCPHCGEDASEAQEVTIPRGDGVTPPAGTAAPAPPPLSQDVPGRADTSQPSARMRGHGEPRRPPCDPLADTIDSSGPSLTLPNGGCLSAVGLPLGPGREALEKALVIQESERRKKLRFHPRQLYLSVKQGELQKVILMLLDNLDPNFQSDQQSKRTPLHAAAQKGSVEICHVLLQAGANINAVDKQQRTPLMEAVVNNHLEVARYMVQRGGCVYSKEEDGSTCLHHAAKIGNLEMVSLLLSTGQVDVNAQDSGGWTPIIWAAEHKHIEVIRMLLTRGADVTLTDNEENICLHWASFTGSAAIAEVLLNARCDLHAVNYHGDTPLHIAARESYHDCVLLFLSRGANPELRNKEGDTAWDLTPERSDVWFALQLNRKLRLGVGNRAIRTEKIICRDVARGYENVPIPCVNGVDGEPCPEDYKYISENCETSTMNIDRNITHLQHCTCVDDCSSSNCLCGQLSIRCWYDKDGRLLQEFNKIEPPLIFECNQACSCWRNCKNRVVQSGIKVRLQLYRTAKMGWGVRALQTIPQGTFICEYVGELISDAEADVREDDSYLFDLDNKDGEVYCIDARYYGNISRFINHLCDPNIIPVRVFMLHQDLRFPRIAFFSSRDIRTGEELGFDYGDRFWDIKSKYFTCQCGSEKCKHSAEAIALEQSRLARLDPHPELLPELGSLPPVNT

| pIC50 | SMILES |
| --- | --- |
| 4.00 to 5.00 | COc1cc2c(N[C@@H]3CCCN(Cc4ccccc4)C3)nc(N3CCCCC3)nc2cc1C#CCCN(C)C [Example 19, (R)-N-(1-benzylpiperidine-3-yl)-7-(4-(dimethylamino)-1-butyne-1-yl)-6-methoxy-2-(piperidine-1-yl)quinazoline-4-amine] |
| 5.00 to 6.00 | COc1cc2c(NCCN3CCCC3)nc(N3CCCCC3)nc2cc1C#CCCN(C)C [Example 20, 7-(4-(dimethylamino)-1-butyne-1-yl)-6-methoxy-2-(piperidine-1-yl)-N-(2-(pyrrolidine-1-yl)ethyl)quinazoline-4-amine] |
| 6.00 to 7.00 | COc1cc2c(NCCCN(C)C)nc(N3CCCCC3)nc2cc1C#CCCN(C)C [Example 21, N1-(7-(4-(dimethylamino)-1-butyne-1-yl)-6-methoxy-2-(piperidine-1-yl)quinazoline-4-yl)-N3,N3-dimethylpropane-1,3-diamine] |
| 6.00 to 7.00 | COc1cc2c(NC3CCN(C)CC3)nc(N3CCCCC3)nc2cc1C#CCCN(C)C [Example 22, 7-(4-(dimethylamino)-1-butyne-1-yl)-6-methoxy-N-(1-methylpiperidine-4-yl)-2-(piperidine-1-yl)quinazoline-4-amine] |
| 4.00 to 5.00 | COc1cc2c(NC3CCCCC3)nc(N3CCCCC3)nc2cc1C#CCCN(C)C [Example 23, N-cyclohexyl-7-(4-(dimethylamino)-1-butyne-1-yl)-6-methoxy-2-(piperidine-1-yl)quinazoline-4-amine] |
| > 7.00 | COc1cc2c(NC3CCN(C4CC4)CC3)nc(N3CCCCC3)nc2cc1C#CCCN(C)C [Example 24, N-(1-cyclopropylpiperidine-4-yl)-7-(4-(dimethylamino)-1-butyne-1-yl)-6-methoxy-2-(piperidine-1-yl)quinazoline-4-amine] |
| 5.00 to 6.00 | COc1cc2c(NC3CCN(c4ccccc4)CC3)nc(N3CCCCC3)nc2cc1C#CCCN(C)C [Example 25, 7-(4-(dimethylamino)-1-butyne-1-yl)-6-methoxy-N-(1-phenylpiperidine-4-yl)-2-(piperidine-1-yl)quinazoline-4-amine] |
| 6.00 to 7.00 | COc1cc2c(NCc3cccnc3)nc(N3CCCCC3)nc2cc1C#CCCN(C)C [Example 26, 7-(4-(dimethylamino)-1-butyne-1-yl)-6-methoxy-2-(piperidine-1-yl)-N-(pyridine-3-ylmethyl)quinazoline-4-amine] |
| 6.00 to 7.00 | COc1cc2c(NC3CC(C)(C)NC(C)(C)C3)nc(N3CCCCC3)nc2cc1C#CCCN(C)C [Example 27, 7-(4-(dimethylamino)-1-butyne-1-yl)-6-methoxy-2-(piperidine-1-yl)-N-(2,2,6,6,-tetramethylpiperidine-4-yl)quinazoline-4-amine] |
| 6.00 to 7.00 | COc1cc2c(NCCN(C)C)nc(N3CCCCC3)nc2cc1C#CCCN(C)C [Example 28, N1-(7-(4-(dimethylamino)-1-butyne-1-yl)-6-methoxy-2-(piperidine-1-yl)quinazoline-4-yl)-N2,N2-dimethylethane-1,2-diamine] |
| 6.00 to 7.00 | COc1cc2c(NC3CCN(C(C)C)CC3)nc(N3CCCCC3)nc2cc1C#CCCN1CC[C@H](F)C1 [Example 29, (S)-7-(4-(3-fluoropyrrolidine-1-yl)-1-butyne-1-yl)-N-(1-isopropylpiperidine-4-yl)-6-methoxy-2-(piperidine-1-yl)quinazoline-4-amine] |
| 6.00 to 7.00 | COc1cc2c(NC3CCN(C(C)C)CC3)nc(N3CCCCC3)nc2cc1C#CCCN1CC[C@@H](F)C1 [Example 30, (R)-7-(4-(3-fluoropyrrolidine-1-yl)-1-butyne-1-yl)-N-(1-isopropylpiperidine-4-yl)-6-methoxy-2-(piperidine-1-yl)quinazoline-4-amine] |
| 5.00 to 6.00 | COc1cc2c(NCC3CCN(C)CC3)nc(N3CCCCC3)nc2cc1C#CCCN(C)C [Example 31, 7-(4-(dimethylamino)-1-butyne-1-yl)-6-methoxy-N-((1-methylpiperidine-4-yl)methyl)-2-(piperidine-1-yl)quinazoline-4-amine] |

Continued, compound first:

| SMILES | pIC50 |
| --- | --- |
| COc1cc2c(NC3CCN(C(C)C)CC3)nc(N3CCCCC3)nc2cc1C#CCCC(=O)N(C)C [Example 1, 5-(4-((1-isopropylpiperidine-4-yl)amino)-6-methoxy-2-(piperidine-1-yl)quinazoline-7-yl)-N,N-dimethylpentyne-4-amide] | 4.00 to 5.00 |
| COc1cc2c(NC3CCN(C(C)C)CC3)nc(N3CCCCC3)nc2cc1C#CCCC(=O)N1CCCC1 [Example 2, 5-(4-((1-isopropylpiperidine-4-yl)amino)-6-methoxy-2-(piperidine-1-yl)quinazoline-7-yl)-1-(pyrrolidine-1-yl)4-pentyne-1-one] | 4.00 to 5.00 |
| COc1cc2c(NC3CCN(C(C)C)CC3)nc(N3CCC(F)(F)CC3)nc2cc1C#CCCN(C)C [Example 4] | 5.00 to 6.00 |
| COc1cc2c(NC3CCN(C(C)C)CC3)nc(N3CCOCC3)nc2cc1C#CCCN(C)C [Example 5, 7-(4-(dimethylamino)-1-butyne-1-yl)-N-(1-isopropylpiperidine-4-yl)-6-methoxy-2-morpholinoquinazoline-4-amine] | 4.00 to 5.00 |
| COc1cc2c(NC3CCN(C(C)C)CC3)nc(N3CCCC3)nc2cc1C#CCCN(C)C [Example 6, 7-(4-(dimethylamino)-1-butyne-1-yl)-N-(1-isopropylpiperidine-4-yl)-6-methoxy-2-(pyrrolidine-1-yl)quinazoline-4-amine] | > 7.00 |
| COc1cc2c(NC3CCN(C(C)C)CC3)nc(N3CCN(C)CC3)nc2cc1C#CCCN(C)C [Example 7, 7-(4-(dimethylamino)-1-butyne-1-yl)-N-(1-isopropylpiperidine-4-yl)-6-methoxy-2-(4-methylpiperazine-1-yl)quinazoline-4-amine] | 6.00 to 7.00 |
| COc1cc2c(NC3CCN(C(C)C)CC3)nc(N3CCCCCC3)nc2cc1C#CCCN(C)C [Example 8, 2-(azepane-1-yl)-7-(4-(dimethylamino)-1-butyne-1-yl)-N-(1-isopropylpiperidine-4-yl)-6-methoxyquinazoline-4-amine] | > 7.00 |
| COc1cc2c(NC3CCN(C(C)C)CC3)nc(N3CCC4(CCCC4)C3)nc2cc1C#CCCN(C)C [Example 9] | > 7.00 |
| COc1cc2c(NC3CCN(C(C)C)CC3)nc(N3C[C@@H]4C[C@@H]4[C@@H]3CO)nc2cc1C#CCCN(C)C [Example 10, ((1S,2R,5R)-3-(7-(4-(dimethylamino)-1-butyne-1-yl)-4-((1-isopropylpiperidine-4-yl)amino)-6-methoxyquinazoline-2-yl)-3-azabicyclo[3.1.0]hexane-2-yl)methanol] | 6.00 to 7.00 |
| COc1cc2c(NC3CCN(C(C)C)CC3)nc(N3CCC(N(C)C)CC3)nc2cc1C#CCCN(C)C [Example 11, 7-(4-(dimethylamino)-1-butyne-1-yl)-2-(4-(dimethylamino)piperidine-1-yl)-N-(1-isopropylpiperidine-4-yl)-6-methoxyquinazoline-4-amine] | 5.00 to 6.00 |
| COc1cc2c(NC3CCN(C(C)C)CC3)nc(N3CCCCC3)nc2cc1C#CCCN1CCCCC1 [Example 12, N-(1-isopropylpiperidine-4-yl)-6-methoxy-2-(piperidine-1-yl)-7-(4-(piperidine-1-yl)-1-butyne-1-yl)quinazoline-4-amine] | > 7.00 |
| CCN(CC)CCC#Cc1cc2nc(N3CCCCC3)nc(NC3CCN(C(C)C)CC3)c2cc1OC [Example 13, 7-(4-(diethylamino)-1-butyne-1-yl)-N-(1-isopropylpiperidine-4-yl)-6-methoxy-2-(piperidine-1-yl)quinazoline-4-amine] | 5.00 to 6.00 |
| COc1cc2c(NC3CCN(C(C)C)CC3)nc(N3CCCCC3)nc2cc1C#CCCN1CCC(C)CC1 [Example 15, N-(1-isopropylpiperidine-4-yl)-6-methoxy-7-(4-(4-methylpiperidine-1-yl)-1-butyne-1-yl)-2-(piperidine-1-yl)quinazoline-4-amine] | 5.00 to 6.00 |
| COc1cc2c(NC3CCN(C(C)C)CC3)nc(N3CCCCC3)nc2cc1C#CCCN1CCCC1 [Example 16, N-(1-isopropylpiperidine-4-yl)-6-methoxy-2-(piperidine-1-yl)-7-(4-(pyrrolidine-1-yl)-1-butyne-1-yl)quinazoline-4-amine] | > 7.00 |
| COc1cc2c(NC3CCN(C(C)C)CC3)nc(N3CCCN(C)CC3)nc2cc1C#CCCN(C)C [Example 17, 7-(4-(dimethylamino)-1-butyne-1-yl)-N-(1-isopropylpiperidine-4-yl)-6-methoxy-2-(4-methyl-1,4-diazepane-1-yl)quinazoline-4-amine] | > 7.00 |
| COc1cc2c(NC3CCN(Cc4ccccc4)CC3)nc(N3CCCCC3)nc2cc1C#CCCN(C)C [Example 18, N-(1-benzylpiperidine-4-yl)-7-(4-(dimethylamino)-1-butyne-1-yl)-6-methoxy-2-(piperidine-1-yl)quinazoline-4-amine] | 5.00 to 6.00 |
